Assay results from patent US20170368207A1, “SELF-ASSEMBLED NANOSTRUCTURE AND METHOD FOR PREPARING THE SAME” (National Chiao Tung University, priority 2016, published 2017).

Test: Relaxivity of contrast agents (Table 4)
Type: physicochemical
Text: Relaxivities of a self-assembled nanostructure of the invention, gadodiamide, and carboxymethyl hexanoyl chitosan that physically encapsulates gadodiamide are as shown in Table 4. Hereinafter, the symbol “CHC+Gd” represents that there is only physical mixing between gadodiamide and carboxymethyl hexanoyl chitosan, while the symbol “CHC−Gd” represents that chemical bonding exists between gadodiamide and carboxymethyl hexanoyl chitosan (i.e., the self-assembled nanostructure of the invention).
As a molecule grafted to a paramagnetic metal of a contrast agent is larger, a rotation time between the paramagnetic metal and a solvent molecule becomes longer, so that the relaxivity of the contrast agent is enhanced. The higher the relaxivity of the contrast agent, the better the contrast effect, i.e., the more excellent the contrasting ability. In the self-assembled nanostructure of the invention, gadolinium (paramagnetic metal) has an amphiphilic chitosan (polymer) grafted thereto, and thus has a higher relaxivity than the relaxivities of the single gadodiamide and CHC+Gd. […] In other words, the contrast agent compound of the invention, after being grafted to the amphiphilic chitosan, produces a synergistic effect on the contrasting ability of the contrast agent compound.

Relaxivity: 1.8158 mM⁻¹ s⁻¹
Structure (SMILES): CNC(=O)CN(CCN(CCN(CC(=O)[O-])CC(=O)NC)CC(=O)[O-])CC(=O)[O-].[Gd+3] [Gadodiamide, gadodiamide]
